Drawing on PubChem BioAssay AID330 (DTP/NCI, 2004), this text covers T/C for 19 compounds.

The subject of this assay is P388 leukemia ip, CD2F1 mice, survival T/C. Nature of the assay: NCI In Vivo Anticancer Drug Screen. Data for tumor model P388 Leukemia (intraperitoneal) in CD2F1 (CDF1) mice. The conditions noted are these: endpoint: median survival time, higher = longer survival. In outline:
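Mice carrying the transplanted tumor received test compound or vehicle. Survival was recorded in each group, and the value is the treated-group measurement divided by that of the vehicle-treated control group.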

[1] abbreviates: dose: 25.0 mg/kg/injection, schedule: Q01DX009 (ip), vehicle: saline with Tween-80.
Where [2] appears, read: dose: 50.0 mg/kg/injection, schedule: Q01DX009 (ip), vehicle: saline with Tween-80.
[3] abbreviates: dose: 100.0 mg/kg/injection, schedule: Q01DX009 (ip), vehicle: saline with Tween-80.
[4] abbreviates: dose: 60.0 mg/kg/injection, schedule: Q01DX005 (ip), vehicle: saline with Tween-80.
Setting [5] is: dose: 120.0 mg/kg/injection, schedule: Q01DX005 (ip), vehicle: saline with Tween-80.
Where [6] appears, read: dose: 240.0 mg/kg/injection, schedule: Q01DX005 (ip), vehicle: saline with Tween-80.
[7] abbreviates: dose: 6.25 mg/kg/injection, schedule: Q01DX009 (ip), vehicle: Klucel (hydroxypropylcellulose) (HPC).
Setting [8] is: dose: 12.5 mg/kg/injection, schedule: Q01DX009 (ip), vehicle: Klucel (hydroxypropylcellulose) (HPC).
Setting [9] is: dose: 25.0 mg/kg/injection, schedule: Q01DX009 (ip), vehicle: Klucel (hydroxypropylcellulose) (HPC).
Where [10] appears, read: dose: 50.0 mg/kg/injection, schedule: Q01DX009 (ip), vehicle: Klucel (hydroxypropylcellulose) (HPC).
Setting [11] is: dose: 100.0 mg/kg/injection, schedule: Q01DX009 (ip), vehicle: Klucel (hydroxypropylcellulose) (HPC).
Where [12] appears, read: dose: 60.0 mg/kg/injection, schedule: Q01DX005 (ip), vehicle: Klucel (hydroxypropylcellulose) (HPC).
Where [13] appears, read: dose: 120.0 mg/kg/injection, schedule: Q01DX005 (ip), vehicle: Klucel (hydroxypropylcellulose) (HPC).
Where [14] appears, read: dose: 240.0 mg/kg/injection, schedule: Q01DX005 (ip), vehicle: Klucel (hydroxypropylcellulose) (HPC).
The mark [15] stands for this setting: dose: 50.0 mg/kg/injection, schedule: Q01DX005 (ip), vehicle: Klucel (hydroxypropylcellulose) (HPC).
Where [16] appears, read: dose: 100.0 mg/kg/injection, schedule: Q01DX005 (ip), vehicle: Klucel (hydroxypropylcellulose) (HPC).
Where [17] appears, read: dose: 200.0 mg/kg/injection, schedule: Q01DX005 (ip), vehicle: Klucel (hydroxypropylcellulose) (HPC).

The structures appear in SMILES notation. Several values for one entry are separate records, joined by “and”; a condition that tells them apart may be missing. Identical values can stand only once. Toxic doses and inconclusive results are not listed.

In the case of `CCC(c1ccc(OC)cc1)C(NCC(=O)N/N=C/c1ccccc1[N+](=O)[O-])c1ccc(OC)cc1` (stereo not given), the T/C (dose: 3.12 mg/kg/injection, schedule: Q01DX001 (ip), vehicle: saline with Tween-80) was 94 % of control; the T/C (dose: 6.25 mg/kg/injection, schedule: Q01DX001 (ip), vehicle: saline with Tween-80) is 88 % of control; the T/C (dose: 12.5 mg/kg/injection, schedule: Q01DX001 (ip), vehicle: saline with Tween-80) was 88 % of control; the T/C (dose: 400.0 mg/kg/injection, schedule: Q01DX001 (ip), vehicle: saline with Tween-80) was 96 % of control.

For `Cc1ccc(C(=O)Cc2ccc(C#N)cc2)cc1`, the T/C is 99 % of control under setting [1]; 118 % of control under setting [2]; 108 % of control under setting [3]; 99 % of control (dose: 200.0 mg/kg/injection, schedule: Q01DX009 (ip), vehicle: saline with Tween-80).

Turning to `C[C@]12CCC(=O)C=C1CC[C@@H]1[C@@H]2[C@@H](O)C[C@@]2(C)[C@H]1CC[C@]2(C)O`, the T/C is 90 % of control under setting [1]; 100 % of control under setting [2]; 100 % of control under setting [3]; 100 % of control (dose: 100.0 mg/kg/injection, schedule: Q04DX003 (ip), vehicle: saline with Tween-80); 100 % of control (dose: 200.0 mg/kg/injection, schedule: Q04DX003 (ip), vehicle: saline with Tween-80); 100 % of control (dose: 400.0 mg/kg/injection, schedule: Q04DX003 (ip), vehicle: saline with Tween-80).

Turning to `CC(C)=CCC/C(C)=C/CC/C(C)=C/CC/C(C)=C/C=C/C=C(\C)CC/C=C(\C)CC/C=C(\C)CCC=C(C)C`, the T/C by setting is: (dose: 17.5 mg/kg/injection, schedule: Q01DX005 (ip), vehicle: saline) 101 % of control; (dose: 35.0 mg/kg/injection, schedule: Q01DX005 (ip), vehicle: saline) 100 % of control; (dose: 70.0 mg/kg/injection, schedule: Q01DX005 (ip), vehicle: saline) 95 % of control; (dose: 140.0 mg/kg/injection, schedule: Q01DX005 (ip), vehicle: saline) 104 % of control.

For `COc1ccc(C(=O)CCc2cccc(NC(=O)CCCl)c2)cc1`, the T/C reads like this: under setting [4], 105 % of control; under setting [5], 94 % of control; under setting [6], 92 % of control.

In the case of `CC1=CC=C(C(=O)C(Br)C(Br)c2ccccc2)C1` (stereo not given), the T/C is 92 % of control under setting [7], 92 % of control under setting [8] and 89 % of control under setting [9].

Regarding `C=CCn1c(=O)n(C)c(=O)c2[nH]c(Cl)nc21`, the T/C reads like this: (dose: 16.0 mg/kg/injection, schedule: Q01DX009 (ip), vehicle: Klucel (hydroxypropylcellulose) (HPC)) 108 % of control; (dose: 32.0 mg/kg/injection, schedule: Q01DX009 (ip), vehicle: Klucel (hydroxypropylcellulose) (HPC)) 103 % of control; under setting [10], 110 % of control; (dose: 64.0 mg/kg/injection, schedule: Q01DX009 (ip), vehicle: Klucel (hydroxypropylcellulose) (HPC)) 104 % of control; under setting [11], 112 % of control.

As to `O=CNc1ccc(Cl)cc1C(=O)c1ccccc1`, the T/C is 108 % of control under setting [10]; 100 % of control under setting [11]; 95 % of control (dose: 200.0 mg/kg/injection, schedule: Q01DX009 (ip), vehicle: Klucel (hydroxypropylcellulose) (HPC)).

Turning to `CC1CC[N-]CC1.CC1CC[N-]CC1.CS(C)=O.[Cl][Rh]([Cl])[Cl]`, the T/C reads like this: (dose: 3.0 mg/kg/injection, schedule: Q01DX009 (ip), vehicle: saline with Tween-80) 104 % of control; (dose: 3.0 mg/kg/injection, schedule: Q04DX003 (ip), vehicle: saline with Tween-80) 104 % of control; (dose: 6.0 mg/kg/injection, schedule: Q01DX009 (ip), vehicle: saline with Tween-80) 95 % of control; (dose: 6.0 mg/kg/injection, schedule: Q04DX003 (ip), vehicle: saline with Tween-80) 100 % of control; (dose: 12.0 mg/kg/injection, schedule: Q01DX009 (ip), vehicle: saline with Tween-80) 95 % of control; (dose: 12.0 mg/kg/injection, schedule: Q04DX003 (ip), vehicle: saline with Tween-80) 109 % of control.

Consider `c1ccc(N2CCCN2c2ccccc2)cc1`, for which the T/C was 101 % of control (dose: 100.0 mg/kg/injection, schedule: Q04DX002 (ip), vehicle: saline with Tween-80); 99 % of control (dose: 200.0 mg/kg/injection, schedule: Q04DX002 (ip), vehicle: saline with Tween-80); 98 % of control (dose: 400.0 mg/kg/injection, schedule: Q04DX002 (ip), vehicle: saline with Tween-80).

Regarding `CCN(CC)CCCNc1nnnc2ccccc12`, the T/C runs as follows: (dose: 100.0 mg/kg/injection, schedule: Q04DX002 (ip), vehicle: saline) 103 % of control; (dose: 200.0 mg/kg/injection, schedule: Q04DX002 (ip), vehicle: saline) 90 % of control.

In the case of `NC(=O)c1[nH]cnc1N`, the T/C (dose: 25.0 mg/kg/injection, schedule: Q01DX009 (ip), vehicle: saline) was 99 % of control; the T/C (dose: 50.0 mg/kg/injection, schedule: Q01DX009 (ip), vehicle: saline) was 105 % of control; the T/C (dose: 100.0 mg/kg/injection, schedule: Q01DX009 (ip), vehicle: saline) was 99 % of control; the T/C (dose: 400.0 mg/kg/injection, schedule: Q01DX009 (ip), vehicle: saline) was 87 % of control.

As for `CCOC(=O)C(Cc1ccc(N(CCCl)CCCl)cc1)NC(=O)C(CC(C)C)NC(C)=O` (stereo not given), the T/C (dose: 3.12 mg/kg/injection, schedule: Q01DX009 (ip), vehicle: Klucel (hydroxypropylcellulose) (HPC)) is 162 % of control; the T/C (dose: 5.0 mg/kg/injection, schedule: Q04DX003 (ip), vehicle: water) is 105 % of control; the T/C under setting [7] is 172 % of control; the T/C (dose: 10.0 mg/kg/injection, schedule: Q04DX003 (ip), vehicle: water) was 107 % of control; the T/C under setting [8] is 241 % of control and 254 % of control; the T/C (dose: 20.0 mg/kg/injection, schedule: Q04DX003 (ip), vehicle: water) is 108 % of control. Also, the T/C by setting is: under setting [9], 119 % of control; (dose: 40.0 mg/kg/injection, schedule: Q04DX003 (ip), vehicle: other) 122 % of control; (dose: 40.0 mg/kg/injection, schedule: Q04DX003 (ip), vehicle: water) 109 % of control; under setting [10], 104 % of control and 97 % of control; (dose: 80.0 mg/kg/injection, schedule: Q04DX003 (ip), vehicle: other) 116 % of control.

In the case of `Cc1cccc(N2CCN(C(=O)/C(=C/c3ccccc3)NC(=O)c3ccccc3)CC2)c1`, the T/C by setting is: (dose: 50.0 mg/kg/injection, schedule: Q01DX005 (ip), vehicle: saline with Tween-80) 93 % of control; (dose: 100.0 mg/kg/injection, schedule: Q01DX005 (ip), vehicle: saline with Tween-80) 89 % of control.

On to `CN(C)c1ccc(/C=N\N=C/c2ccc(N(C)C)cc2)cc1`, for which the T/C is, setting by setting: under setting [12], 88 % of control; under setting [13], 87 % of control; under setting [14], 86 % of control.

Regarding `CC(C)(C)C1=CC(C#N)N(Cc2ccccc2)CC1` (stereo not given), the T/C is, setting by setting: under setting [12], 110 % of control; under setting [13], 108 % of control; under setting [14], 109 % of control.

Turning to `O=c1c2cccnc2oc2c(Cl)cc(-c3nn[nH]n3)cc12`, the T/C is 97 % of control under setting [15], 111 % of control under setting [16] and 97 % of control under setting [17].

Consider `COC(=O)C1=C(N)SS/C1=C/[N+](=O)[O-]`, for which the T/C under setting [15] was 106 % of control, the T/C under setting [16] was 103 % of control and the T/C under setting [17] was 101 % of control.

With `N#CC(C(=O)C(=O)Nc1cccc(C(F)(F)F)c1)c1cccc(Cl)c1` (stereo not given), the T/C runs as follows: under setting [4], 105 % of control; under setting [5], 112 % of control; under setting [6], 103 % of control.
